Source: PubChem BioAssay (NCI)
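Briefly, cells in 96-well plates were exposed to five compound concentrations for 48 h, and endpoints were estimated by linear interpolation. Abbreviation: GI50, concentration required for 50% inhibition of growth. Definition used: TGI = concentration required for complete inhibition of growth.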

Key:
Assay in all cases: NCI tumour cell line growth inhibition, 48 h
SK-MEL-28 melanoma = system: SK-MEL-28 melanoma
M14 melanoma = system: M14 melanoma
HL-60(TB) leukemia = system: HL-60(TB) leukemia
HCT-15 colon = system: HCT-15 colon
UACC-257 melanoma = system: UACC-257 melanoma
BT-549 breast = system: BT-549 breast
NCI-H23 lung = system: NCI-H23 lung
MALME-3M melanoma = system: MALME-3M melanoma
SNB-75 CNS = system: SNB-75 CNS
786-0 renal = system: 786-0 renal

| Structure (SMILES) | GI50 (SK-MEL-28 melanoma) | TGI (SK-MEL-28 melanoma) | GI50 (M14 melanoma) | TGI (M14 melanoma) | GI50 (HL-60(TB) leukemia) | TGI (HL-60(TB) leukemia) | GI50 (HCT-15 colon) | TGI (HCT-15 colon) | GI50 (UACC-257 melanoma) | TGI (UACC-257 melanoma) | GI50 (BT-549 breast) | TGI (BT-549 breast) | GI50 (NCI-H23 lung) | TGI (NCI-H23 lung) | GI50 (MALME-3M melanoma) | TGI (MALME-3M melanoma) | GI50 (SNB-75 CNS) | TGI (SNB-75 CNS) | GI50 (786-0 renal) | TGI (786-0 renal) |
| --- | --- | --- | --- | --- | --- | --- | --- | --- | --- | --- | --- | --- | --- | --- | --- | --- | --- | --- | --- | --- |
| CCCCCCCCCCCCNC(=O)[C@H]1CSC(c2cc3ccccc3s2)N1 (stereo not given in full) | 0.644 µM | 1.39 µM | 0.591 µM | 1.11 µM | 0.154 µM | 8.69 µM | 3.69 µM | 8.17 µM | 4.12 µM | 8.6 µM | 1.01 µM | 4.11 µM | 1.92 µM | 7.19 µM | 5.75 µM | 10.9 µM | 0.599 µM | 1.12 µM | 4.6 µM | 9.11 µM |
| COc1cc(-c2nc(NC(C)=O)sc2-c2ccnc(NCCNS(=O)(=O)c3ccccc3)n2)ccc1Cl | 3.71 µM | > 100 µM | 2.09 µM | 5.42 µM | 3.14 µM | 7.45 µM | 3.78 µM | > 100 µM | 5.37 µM | > 100 µM | 3.1 µM | > 100 µM | 5 µM | > 100 µM | 3.8 µM | > 100 µM | 1.49 µM | 7.19 µM | 4.31 µM | > 100 µM |
| COc1ccccc1-c1cc(/C=C2\C(=O)Nc3ncc(Br)cc32)cc(Br)c1O | 14.8 µM | > 25 µM | 12.9 µM | > 25 µM | 7.47 µM | 23.7 µM | 9.6 µM | > 25 µM | 16.4 µM | > 25 µM | 14.2 µM | > 25 µM | 10.5 µM | > 25 µM | 16.4 µM | > 25 µM | 6.03 µM | > 25 µM | 12.2 µM | > 25 µM |
| CC(C)CC1C(=O)N2CCC[C@H]2C2(O)O[C@](NC(=O)C3C=C4c5cccc6[nH]c(Br)c(c56)C[C@H]4N(C)C3)(C(C)C)C(=O)N12 (stereo not given in full) | – | > 100 µM | > 100 µM | > 100 µM | 3.8 µM | 29.3 µM | 7.05 µM | > 100 µM | 16.7 µM | > 100 µM | 11.7 µM | > 100 µM | 8.22 µM | > 100 µM | > 100 µM | > 100 µM | 5.55 µM | > 100 µM | 25.7 µM | > 100 µM |
| Cc1nc2ccccn2c1NC(=O)NNC(=S)Nc1ccc(Br)cc1 | 33 µM | 94 µM | 24.5 µM | 67.9 µM | 24.4 µM | > 100 µM | 28.8 µM | > 100 µM | 37.8 µM | > 100 µM | 42.8 µM | > 100 µM | – | – | – | – | 26.1 µM | 67.5 µM | 41.7 µM | > 100 µM |
| Cc1ncc(C(=O)Nc2ccc(CN3CCN(C)CC3)c(C(F)(F)F)c2)cc1C#Cc1cnc(N)c2cnccc12 | 0.0181 µM | 0.376 µM | 0.0225 µM | 0.17 µM | 0.0383 µM | 1.03 µM | 0.389 µM | 4.41 µM | 0.0689 µM | 1.29 µM | 0.841 µM | 10.7 µM | 0.0873 µM | 10.5 µM | < 0.0113 µM | 0.042 µM | 0.0899 µM | 0.616 µM | 0.225 µM | 11 µM |
